According to ChEMBL document CHEMBL5053553, “Structure-activity relationship around PI-2620 highlights the importance of the nitrogen atom position in the tricyclic core” (Bioorg Med Chem, 2021):

Legend:
[1] = molecular target: Microtubule-associated protein tau (Homo sapiens, UniProt P10636); test: Displacement of [3H]PI-2620 from Tau in human brain homogenate incubated for 60 mins by radioligand binding assay; type: tissue-based
[2] = molecular target: T1, Amine oxidase [flavin-containing] A (Mus musculus, UniProt Q64133); test: Displacement of [18F]-FEH from MAO-A in mouse brain homogenate incubated for 60 mins by imaging analysis; type: tissue-based
T1 sequence (Q64133 whole entry): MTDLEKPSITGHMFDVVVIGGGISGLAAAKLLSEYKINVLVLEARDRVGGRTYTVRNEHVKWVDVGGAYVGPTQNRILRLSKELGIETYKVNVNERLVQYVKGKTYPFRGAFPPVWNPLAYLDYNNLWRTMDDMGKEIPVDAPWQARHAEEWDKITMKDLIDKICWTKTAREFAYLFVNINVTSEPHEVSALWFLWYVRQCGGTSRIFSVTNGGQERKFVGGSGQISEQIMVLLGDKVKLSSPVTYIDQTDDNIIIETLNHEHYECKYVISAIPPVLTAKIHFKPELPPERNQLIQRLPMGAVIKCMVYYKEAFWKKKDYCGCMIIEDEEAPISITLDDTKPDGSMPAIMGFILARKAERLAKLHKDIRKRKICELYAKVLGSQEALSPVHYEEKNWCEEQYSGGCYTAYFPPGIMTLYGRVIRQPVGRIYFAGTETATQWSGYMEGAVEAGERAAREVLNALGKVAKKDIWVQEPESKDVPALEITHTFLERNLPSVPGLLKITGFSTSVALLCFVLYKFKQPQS

Microtubule-associated protein tau, sequence (P10636 whole entry): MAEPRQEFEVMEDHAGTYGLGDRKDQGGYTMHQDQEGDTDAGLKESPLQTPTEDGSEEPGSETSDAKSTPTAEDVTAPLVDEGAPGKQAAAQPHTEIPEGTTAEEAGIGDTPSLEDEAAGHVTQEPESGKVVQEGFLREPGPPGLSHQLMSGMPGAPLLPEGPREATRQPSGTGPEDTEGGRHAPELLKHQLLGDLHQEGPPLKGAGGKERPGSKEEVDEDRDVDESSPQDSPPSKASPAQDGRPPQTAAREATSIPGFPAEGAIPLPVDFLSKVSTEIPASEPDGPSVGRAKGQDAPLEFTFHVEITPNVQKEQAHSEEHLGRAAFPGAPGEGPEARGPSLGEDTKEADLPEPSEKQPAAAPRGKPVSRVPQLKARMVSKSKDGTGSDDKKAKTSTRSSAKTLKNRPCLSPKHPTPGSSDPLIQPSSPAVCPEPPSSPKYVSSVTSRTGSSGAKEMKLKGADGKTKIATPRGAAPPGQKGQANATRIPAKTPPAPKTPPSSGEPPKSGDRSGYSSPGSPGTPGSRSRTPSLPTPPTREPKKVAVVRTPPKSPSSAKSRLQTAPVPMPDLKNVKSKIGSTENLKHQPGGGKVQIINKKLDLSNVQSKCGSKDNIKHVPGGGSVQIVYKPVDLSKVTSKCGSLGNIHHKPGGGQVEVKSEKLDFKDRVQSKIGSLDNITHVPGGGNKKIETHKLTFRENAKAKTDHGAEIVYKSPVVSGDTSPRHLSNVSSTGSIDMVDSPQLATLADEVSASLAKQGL

| Compound | IC50 [1] [nM] | IC50 [2] [nM] |
| --- | --- | --- |
| Fc1cc(-c2cc3[nH]c4ccncc4c3cn2)ccn1 | 82 | > 1000 |
| Fc1cc(-c2ccc3c(n2)[nH]c2cccnc23)ccn1 | 260 |  |
| Fc1cc(-c2ccc3c(n2)[nH]c2ncccc23)ccn1 | 310 |  |
| Fc1ncccc1-c1cnc2c(c1)[nH]c1ccncc12 | 344 | > 1000 |
| Fc1ncccc1-c1ccc2c(n1)[nH]c1cnccc12 | 70 |  |
| Fc1cc(-c2ccc3c(n2)[nH]c2cnccc23)ccn1 | 36 |  |
| Fc1cc(-c2cnc3c(c2)[nH]c2ccncc23)ccn1 | 116 | > 1000 |
| Fc1ncccc1-c1ccc2c(n1)[nH]c1ncccc12 | > 1000 |  |
| Fc1ncccc1-c1cc2[nH]c3ccncc3c2cn1 | 732 | > 1000 |
| Fc1ncccc1-c1ccc2c(n1)[nH]c1cccnc12 | 559 |  |

Compounds with a lower IC50 [1], results first:

| IC50 [1] [nM] | IC50 [2] [nM] | Compound |
| --- | --- | --- |
| 15.5 | > 1000 | Fc1ncccc1-c1ccc2c(n1)[nH]c1ccncc12 |
| 3.5 | 7.8 | Fc1ncccc1-c1ccc2c(c1)[nH]c1ccncc12 |
| 3.1 |  | Fc1cc(-c2ccc3c(c2)[nH]c2ccncc23)ccn1 |
| 4.9 | > 1000 | Fc1cc(-c2ccc3c(n2)[nH]c2ccncc23)ccn1 |
| 18 | > 1000 | Fc1cc(-c2nc3[nH]c4ccncc4c3s2)ccn1 |
